Measured values from patent publication US10785975B2, “Water and feed antimicrobial preservative” (priority 2009, dated 2020).
Where two headings read alike, the source gives them in different places.

Legend:
Salmonella typhimurium [1] = test: Study 5: propionic, acetic and pelargonic acids alone or in combination in water; assay type: cell-based
Procedure: Propionic, acetic and pelargonic acids by themselves or in combination as listed were added to sterile deionized water to make at a 0.05%, 0.04%, 0.03%, 0.02% and 0.01% total acid solutions. The pHs of the deionized water solutions were recorded and any problems with solubility noted. 100 ul of a nutrient broth culture of Salmonella typhimurium was added to each dilution tube. After addition, tubes were vortexed and allowed to stand. At 24 hours after addition of the inoculum, 100 ul of the solution was plated on Standard Plate agar (triplicate plates). Plates were incubated at 37° C. for 24 hours prior to enumeration.

Salmonella typhimurium [2] = test: Example 3: buffered organic acid mixtures with pelargonic acid in water; assay type: cell-based; conditions: for MIC at 4 HR / MIC at 24 HR: Minimum Inhibitory Concentration of Pelargonic when mixed with acetic or propionic acid (buffered to pH 3), by linear regression
Procedure: Procedure: Propionic and acetic acids were buffered with ammonium hydroxide to a pH of 3 and combined with pelargonic in the ratios above. Acid content of the buffered solutions was determined by weight to weight ratio calculation (weight of acid/total weight of buffered solution) and adjusted to provide an equal acid value for each treatment. […] The pHs of the deionized water solutions were recorded and any problems with solubility noted.
100 ul of a nutrient broth culture of Salmonella typhimurium was added to each dilution tube. After addition, tubes were vortexed and allowed to stand. At 4 and 24 hours after addition of the inoculum, 100 ul of the solution was plated on Standard Plate agar (triplicate plates). Plates were incubated at 37° C. for 24 hours prior to enumeration. The minimum effective dose of each acid was determined by linear regression.

Salmonella typhimurium [3] = test: Study 7: myristic acid in propionic acid against salmonella in poultry feed; assay type: cell-based; conditions: Myristic/Propionic acids, 24 hours after treatment
Procedure: (§1) Myristic acid (5%, 10% and 20%) diluted in propionic acid was tested to determine its effectiveness against salmonella in feed.
(§2) Commercial poultry feed amended with Salmonella typhimurium was treated with 1 or 3 kg/MT of the solutions listed below. Twenty four hours after treatment, 10 gr of feed was added to 90 ml Butterfield buffer, mixed and then 100 ul of the solution was plated on Standard Plate agar (triplicate plates). Plates were incubated at 37° C. for 24 hours prior to enumeration.

Salmonella typhimurium [4] = test: Study 8: lauric acid in propionic acid against salmonella in poultry feed; assay type: cell-based; conditions: Lauric/Propionic acids, 24 hours after treatment
Procedure: Lauric acid (5%, 10%, 20%) diluted with propionic acid was tested to determine its effectiveness against salmonella in feed.
[…] Twenty four hours after treatment, 10 gr of feed was added to 90 ml Butterfield buffer, mixed and then 100 ul of the solution was plated on Standard Plate agar (triplicate plates). Plates were incubated at 37° C. for 24 hours prior to enumeration.

Salmonella typhimurium [5] = test: Study 6: capric acid in acetic or propionic acid against salmonella in poultry feed; assay type: cell-based; conditions: Capric/Propionic acids, 24 hours after treatment
Procedure: as §2

Salmonella typhimurium [6] = test: Example 2: effect of carbon chain length of individual organic acids on antimicrobial activity in water; assay type: cell-based; parameters: MIC at 4 HR / MIC at 24 FIR: unit not given here; conditions: for MIC at 4 HR / MIC at 24 FIR: Minimum Inhibitory Concentration of Organic Acids against Salmonella, by linear regression; for MIC at 24 FIR: 24 hours; for killing at […] / killing at 0.05 % / killing at 0.075 % / killing at 0.1 %: Salmonella enterica, TYPHIMURIUM
Procedure: 100 ul of a nutrient broth culture of Salmonella typhimurium was added to each dilution tube. After addition, tubes were vortexed and allowed to stand. At 4 and 24 hours after addition of the inoculum, 100 ul of the solution was plated on agar (triplicate plates). Plates were incubated at 37° C. for 24 hours prior to enumeration. The minimum effective dose of each acid was be determined by linear regression: […]

[7] = Procedure: Pelargonic acid is a naturally occurring fatty acid found in almost all species of animals and plants. Because it contains nine carbon atoms, it is also called nonanoic acid has the chemical formula CH3(CH2)7COOH. It is found at low levels in many common foods and is readily broken down in the environment. It is an oily colorless fluid that solidifies at lower temperatures.
In this experiment, the effect of free fatty acids was evaluated. […] The pH of the deionized water solutions was recorded and any problems with solubility noted
as §1

M. gypseum = conditions: acids tested independently, cited from earlier work
[8] = general description in background; cited from earlier work
C. irritans = conditions: cited from earlier work
[9] = Test Product 0.01 % total acid solution in water
[10] = Test Product 0.02 % total acid solution in water
[11] = Test Product 0.04 % total acid solution in water
[12] = Test Product 0.05 % total acid solution in water
[13] = Product Conc. 0.025 (% total acid solution in water)
[14] = Product Conc. 0.05 (% total acid solution in water)
[15] = Product Conc. 0.075 (% total acid solution in water)
[16] = Product Conc. 0.1 (% total acid solution in water)

With CCC(=O)O [Propionic acid] as the compound, how does the “Salmonella 24 hr afterTreatment (cfu/g)” value (Salmonella typhimurium [1]; [9]) read?
Its value is 1200 cfu/g.

And the “Salmonella 24 hr afterTreatment (cfu/g)” value (Salmonella typhimurium [1]; [10])?
The value was 870 cfu/g.

And the “Salmonella 24 hr afterTreatment (cfu/g)” value (Salmonella typhimurium [1]; Test Product 0.03 % total acid solution in water)?
Its value is 810 cfu/g.

And the “Salmonella 24 hr afterTreatment (cfu/g)” value (Salmonella typhimurium [1]; [11])?
Its value is 910 cfu/g.

What about the “Salmonella 24 hr afterTreatment (cfu/g)” value (Salmonella typhimurium [1]; [12]) of the same compound?
Its value is 560 cfu/g.

And the “MIC at 4 HR” value (Salmonella typhimurium [2])?
Its value is 0.179.

What about the “MIC at 24 HR” value (Salmonella typhimurium [2]) of the same compound?
The value was 0.064.

And the “% Reduction” value (Salmonella typhimurium [3]; 1 kg/MT)?
Its value is 90.08%.

What about the cfu/g (Salmonella typhimurium [3]; 1 kg/MT) of the same compound?
Its cfu/g is 3967 cfu/g.

And the “% Reduction” value (Salmonella typhimurium [3]; 3 kg/MT)?
The value was 99.42%.

And the cfu/g (Salmonella typhimurium [3]; 3 kg/MT)?
Its cfu/g is 233 cfu/g.

And the “% Reduction” value (Salmonella typhimurium [4]; 1 kg/MT)?
The value was 92.3%.

What about the cfu/g (Salmonella typhimurium [4]; 1 kg/MT) of the same compound?
The cfu/g was 2567 cfu/g.

And the “% Reduction” value (Salmonella typhimurium [4]; 3 kg/MT)?
Its value is 100.0%.

What about the cfu/g (Salmonella typhimurium [4]; 3 kg/MT) of the same compound?
The cfu/g was 0 cfu/g.

What about the “% Reduction” value (Salmonella typhimurium [5]; 1 kg/ton) of the same compound?
The value was 0%.

What about the cfu/g (Salmonella typhimurium [5]; 1 kg/ton) of the same compound?
Its cfu/g is 4633 cfu/g.

What about the “% Reduction” value (Salmonella typhimurium [5]; 3 kg/ton) of the same compound?
The value was 0%.

And the cfu/g (Salmonella typhimurium [5]; 3 kg/ton)?
The cfu/g was 5633 cfu/g.

What about the “MIC at 4 HR” value (Salmonella typhimurium [6]; 4 hr) of the same compound?
The value was 0166.

And the “MIC at 24 FIR” value (Salmonella typhimurium [6])?
The value was 0.066.

And the “Salmonella at time Interval 4 hr cfu/g” value (Salmonella typhimurium [6]; Product Conc. 0.025 (% acid solution in water), 4 hr)?
The value was 1167 cfu/g.

What about the “Salmonella at time Interval 24 hr cfu/g” value (Salmonella typhimurium [6]; Product Conc. 0.025 (% acid solution in water), 24 hr) of the same compound?
The value was 170 cfu/g.

And the “Salmonella at time Interval 4 hr cfu/g” value (Salmonella typhimurium [6]; Product Conc. 0.05 (% acid solution in water), 4 hr)?
Its value is 900 cfu/g.

What about the “Salmonella at time Interval 24 hr cfu/g” value (Salmonella typhimurium [6]; Product Conc. 0.05 (% acid solution in water), 24 hr) of the same compound?
Its value is 40 cfu/g.

What about the “Salmonella at time Interval 4 hr cfu/g” value (Salmonella typhimurium [6]; Product Conc. 0.075 (% acid solution in water), 4 hr) of the same compound?
Its value is 877 cfu/g.

And the “Salmonella at time Interval 24 hr cfu/g” value (Salmonella typhimurium [6]; Product Conc. 0.075 (% acid solution in water), 24 hr)?
Its value is 25 cfu/g.

And the “Salmonella at time Interval 4 hr cfu/g” value (Salmonella typhimurium [6]; Product Conc. 0.1 (% acid solution in water), 4 hr)?
The value was 773 cfu/g.

What about the “Salmonella at time Interval 24 hr cfu/g” value (Salmonella typhimurium [6]; Product Conc. 0.1 (% acid solution in water), 24 hr) of the same compound?
The value was 30 cfu/g.

What about the killing at […] (Salmonella typhimurium [6]; Product Conc. 0.025 (% acid solution in water), 4 hr, read-out: Salmonella at time Interval 4 hr % reduction) of the same compound?
Its killing at […] is 27%.

What about the killing at […] (Salmonella typhimurium [6]; Product Conc. 0.025 (% acid solution in water), 24 hr, read-out: Salmonella at time Interval 24 hr % reduction) of the same compound?
Its killing at […] is 90%.

What about the killing at 0.05 % (Salmonella typhimurium [6]; Product Conc. 0.05 (% acid solution in water), 4 hr, read-out: Salmonella at time Interval 4 hr % reduction) of the same compound?
Its killing at 0.05 % is 44%.

And the killing at 0.05 % (Salmonella typhimurium [6]; Product Conc. 0.05 (% acid solution in water), 24 hr, read-out: Salmonella at time Interval 24 hr % reduction)?
The killing at 0.05 % was 98%.

And the killing at 0.075 % (Salmonella typhimurium [6]; Product Conc. 0.075 (% acid solution in water), 4 hr, read-out: Salmonella at time Interval 4 hr % reduction)?
Its killing at 0.075 % is 45%.

And the killing at 0.075 % (Salmonella typhimurium [6]; Product Conc. 0.075 (% acid solution in water), 24 hr, read-out: Salmonella at time Interval 24 hr % reduction)?
Its killing at 0.075 % is 99%.

What about the killing at 0.1 % (Salmonella typhimurium [6]; Product Conc. 0.1 (% acid solution in water), 4 hr, read-out: Salmonella at time Interval 4 hr % reduction) of the same compound?
The killing at 0.1 % was 52%.

What about the killing at 0.1 % (Salmonella typhimurium [6]; Product Conc. 0.1 (% acid solution in water), 24 hr, read-out: Salmonella at time Interval 24 hr % reduction) of the same compound?
Its killing at 0.1 % is 98%.

For CCCCCCCCCCCC(=O)O [lauric, Lauric acid], which solubility in water [7] is on record?
The solubility in water was “not soluble in water”.

Which results are given for CCCCCCCCC(=O)O [Pelargonic acid]?
Salmonella 24 hr afterTreatment (cfu/g) (Salmonella typhimurium [1]; [9]): 1400 cfu/g; Salmonella 24 hr afterTreatment (cfu/g) (Salmonella typhimurium [1]; [10]): 1300 cfu/g; Salmonella 24 hr afterTreatment (cfu/g) (Salmonella typhimurium [1]; [11]): 1500 cfu/g; Salmonella 24 hr afterTreatment (cfu/g) (Salmonella typhimurium [1]; [12]): 850 cfu/g; minimum inhibitory concentration (MTC) to prevent growth of M. gypseum (M. gypseum; in liquid media): 50 µg/mL; minimum inhibitory concentration (MTC) to prevent growth of M. gypseum (M. gypseum; on solid media): 40 µg/mL; MIC at 4 HR (Salmonella typhimurium [2]): <0.025; MIC at 24 HR (Salmonella typhimurium [2]): <0.025; Salmonella at time Interval 4 hr % reduction (Salmonella typhimurium [2]; [13]): 100%; Salmonella at time Interval 4 hr cfu/g (Salmonella typhimurium [2]; [13]): 0 cfu/g; Salmonella at time Interval 24 hr % reduction (Salmonella typhimurium [2]; [13]): 100%; Salmonella at time Interval 24 hr cfu/g (Salmonella typhimurium [2]; [13]): 0 cfu/g; Salmonella at time Interval 4 hr % reduction (Salmonella typhimurium [2]; [14]): 100%; Salmonella at time Interval 4 hr cfu/g (Salmonella typhimurium [2]; [14]): 0 cfu/g; Salmonella at time Interval 24 hr % reduction (Salmonella typhimurium [2]; [14]): 100%; Salmonella at time Interval 24 hr cfu/g (Salmonella typhimurium [2]; [14]): 0 cfu/g; Salmonella at time Interval 4 hr % reduction (Salmonella typhimurium [2]; [15]): 100%; Salmonella at time Interval 4 hr cfu/g (Salmonella typhimurium [2]; [15]): 0 cfu/g; Salmonella at time Interval 24 hr % reduction (Salmonella typhimurium [2]; [15]): 100%; Salmonella at time Interval 24 hr cfu/g (Salmonella typhimurium [2]; [15]): 0 cfu/g; Salmonella at time Interval 4 hr % reduction (Salmonella typhimurium [2]; [16]): 100%; Salmonella at time Interval 4 hr cfu/g (Salmonella typhimurium [2]; [16]): 0 cfu/g; Salmonella at time Interval 24 hr % reduction (Salmonella typhimurium [2]; [16]): 100%; Salmonella at time Interval 24 hr cfu/g (Salmonella typhimurium [2]; [16]): 0 cfu/g; solubility in water [7]: not soluble in water; solubility in water [8]: almost insoluble in water; controlling the growth of the parasite C. irritans (C. irritans): effective in controlling the growth; MIC at 4 HR (Salmonella typhimurium [6]; 4 hr): 0.063; MIC at 24 FIR (Salmonella typhimurium [6]): <0.025
